Source: patent US20210311075A1, “METHODS FOR DETECTING DISORDERS RELATED TO CALCIUM DISCHARGE FROM INTRACELLULAR STORES” (The Regents of the University of California, priority 2017, published 2021)

Experiments:
Assay type in all cases: cell-based
[1] = test system: T lymphocytes isolated from RyR163C mice; assay: Fura-2 intracellular calcium imaging in T lymphocytes from RyR163C mice; conditions: for Δ1/Δ2 ratio: preincubated, fura-2
From the text: (§1) FIGS. 3A and 3B show intracellular calcium measurements in T lymphocytes. […] Shown are average traces recorded from at least 20 cells in one representative experiment.

[2] = test system: T lymphocytes isolated from control WT mice; assay: Fura-2 intracellular calcium imaging in T lymphocytes from wild-type mice; conditions: SERCA blocker applied in about 0 mM extracellular calcium; WT cells, compared to 5×FAD and RyR163C
From the text: as §1

[3] = test system: T lymphocytes isolated from 5×FAD mice; assay: Fura-2 intracellular calcium imaging in T lymphocytes from 5×FAD mice; conditions: SERCA blocker applied in about 0 mM extracellular calcium; 5×FAD T lymphocytes
From the text: as §1

O=C1CN(/N=C/c2ccc(-c3ccc([N+](=O)[O-])cc3)o2)C(O)=N1 [dantrolene]
basal intracellular calcium levels ([1]; dantrolene 50 μM): reducing | responses to thapsigargin ([1]; dantrolene 50 μM): increasing | Δ1/Δ2 ratio ([1]; dantrolene 50 μM): reduced

C/C=C(/C)C(=O)O[C@H]1C(C)=C2[C@H]([C@@H]1OC(=O)CCCCCCC)[C@@](C)(OC(C)=O)C[C@H](OC(=O)CCC)[C@@]1(O)[C@H]2OC(=O)[C@@]1(C)O [thapsigargin]
intracellular calcium transients evoked (Δ2=F3−F2) ([1]; SERCA blocker applied in about 0 mM extracellular calcium): barely detectable | intracellular calcium transients evoked (Δ2=F3−F2) [2]: larger | intracellular calcium transients evoked (Δ2=F3−F2) [3]: barely detectable

ryanodine
basal intracellular calcium levels ([1]; ryanodine 800 μM): reducing | responses to thapsigargin ([1]; ryanodine 800 μM): increasing | Δ1/Δ2 ratio ([1]; ryanodine 800 μM): reduced
